From patent publication US8901313B2, “6,5-heterocyclic propargylic alcohol compounds and uses therefor” (Genentech, Inc., priority 2011, dated 2014)

Legend:
[1] = system: p52 (NF-kB2) nuclear translocation in HeLa cells; assay: NIK p52 Translocation Assay (non-classical NF-kB signaling); format: cell-based; conditions: Homo sapiens; HeLa cells, 100 ng/mL anti-lymphotoxin beta receptor antibody, 5 hours; read-out: inhibitory value (IC50) for NIK p52 Translocation Assay
Procedure: (§1) (2) A second set of cell assay was used to define the selectivity of NIK inhibitors toward inhibition of classical vs. non-classical NF-kB signaling and rely on quantification of the nuclear translocation of p52 (NF-kB2) and REL-A (p65) using high content cellular imaging. For the p52 (non-classical NF-kB signaling) nuclear translocation assay, HeLa cells were treated with different concentrations of compounds (0.2% DMSO final) in medium containing 10% fetal bovine serum and then stimulated with 100 ng/mL of an anti-lymphotoxin beta receptor antibody (R&D Systems) for 5 hours. In the REL-A nuclear translocation assay, HeLa cells were incubated with compounds (0.2% DMSO final) for 4.5 hours in medium containing 10% fetal bovine serum before stimulating them with 10 ng/mL tumor necrosis factor (TNF)-α (R&D Systems) for 30 minutes. Cells were fixed with 4% paraformaldehyde, permeabilized by adding 0.1% Triton X-100 in phosphate buffered saline, and then incubated with either 2 ug/mL anti-p52 antibody (Millipore) or 400 ng/mL anti-REL-A (p65) antibody (Santa Cruz Biotechnology). Finally, the cells were incubated with an Alexa488-labeled secondary antibody (Invitrogen) and DRAQ5 DNA stain (Biostatus). Imaging was carried out using an Opera reader (Perkin Elmer) and data are analyzed with the aid of Acapella software (Perkin Elmer). The p52 or REL-A translocation into the nucleus was quantified by the ratio of the nuclear to cytoplasmic signal intensity. The concentration of inhibitor required for 50% inhibition (IC50 values) in these cell assays were derived from the plots of signal vs. inhibitor concentration. The compounds in listed in Table 1 have the corresponding inhibitory value (IC50 in micromolar) for NIK p52 Translocation Assay (values for compounds are presented in the same order as found in Table 1, and “na” means the data for this assay is to be determined): 0.326, 0.33, na, na, na, 0.218, 0.07, na, na, na, 0.129, 7.6, 0.077, 3.4, na, 0.518, na, 0.059, 0.514, 0.127, na, na, 0.010, na, na, 0.313, 0.275, na, 0.0727, na, na, na, na, na, na, 0.194, na, 6.4, 0.22, 0.346, na, na, na and na, na, na, na, na, na, 0.447, na, 0.089, 0.479, 0.489, 0.243, 0.747, 1, na, 1.9, 0.552, 2.1, na. na, na, na, na and na.

[2] = system: human embryonic kidney 293 cells; assay: 293-NIK TK Renilla Luciferase reporter (general measure of cell viability); format: cell-based; conditions: HEK293, 293 cells, constitutive Renilla luciferase, 24 hours, read-out: inhibitory value (IC50) for 293-NIK TK Renilla Luciferase activity
From the text: (§2) (1) The first assay was used to profile whether a test compound can inhibit the NF-kB signally through NIK inhibition without affecting cell viability. In this assay, human embryonic kidney 293 cells was stably transfected with a tetracycline-inducible NIK DNA construct containing a cytomegalovirus promoter plus two reporter DNA constructs. One reporter encoded firefly luciferase under the control of three repeats of an NF-kB response element from the ELAM-1 gene and reflects the level of NIK activity in the cells, whereas the other reporter constitutively expressed Renilla luciferase under the control of the herpes simplex virus thymidine kinase promoter and served as a general measure of cell viability. Cells were incubated with different concentrations of compounds (0.2% DMSO final) in medium containing 1 ug/mL doxycycline and 10% tet-system approved fetal bovine serum (Clontech) for 24 hours, after which the reporters' signals were detected using the Dual Glo luciferase detection system (Promega) according to the vendor's protocol. The compounds listed in Table 1 have the corresponding inhibitory value (IC50 in micromolar) for 293-NIK NF-kB-Luciferase activity (values for compounds are presented in the same order as found in Table 1): na, 0.059, na, na, na, 0.105, 0.027, na, 20, 1.2, na, 1.8, 0.0231, 0.879, 0.0361, 0.582, na, 0.142, na, 0.403, 0.059, 0.0331, na, na, 0.0573, 1.5, na, na, 0.0722, na, na, 0.589, 12.7, 3.7, 14.9, na, 0.707, 1, 0.0311, 0.332, 0.309, 0.0142, 0.051, 2.8, 0.129, na, na, 1.5, na, na, na, 1.3, 0.062, 20, 0.31, 0.104, 0.091, 0.037, 0.085, 0.279, na, 0.305, 0.064, 0.332, 0.133, 0.168, 0.217, 0.553, na and na.
The compounds in listed in Table 1 have the corresponding inhibitory value (IC50 in micromolar) for 293-NIK TK Renilla Luciferase activity: (values for compounds are presented in the same order as found in Table 1): 6.4, 3.6, 20, na, 1.6, 9.3, 18.5, na, na, 2.6, na, na, na, na, na, na, na, na, na, na, na, na, na, na, na, na, na, na, na, na, na, na, na, na, na, na, na, na, na, na, na, na, na, na, na, na, na, >20, na, na, na, 20, >20, 17, 1.3, 15.6, 0.967, 2.7, 11.2, 5.1, na, 20, 20, 20, 20, 20, 17.6, 20, na and na.

[3] = system: REL-A (p65) nuclear translocation in HeLa cells; assay: NIK RelA Translocation Assay (classical NF-kB signaling); format: cell-based; conditions: Homo sapiens; HeLa cells, compounds 4.5 hours, 10 ng/mL TNF-α 30 minutes; read-out: inhibitory value (IC50) for NIK RelA Translocation Assay
Procedure: as §1
The compounds in listed in Table 1 has the corresponding inhibitory value (IC50 in micromolar) for NIK RelA Translocation Assay (values for compounds are presented in the same order as found in Table 1): 0.326, 0.33, na, na, na, 0.218, 0.07, na, na, na, na, na, 0.129, 7.6, 0.077, 3.4, na, 0.518, na, 0.059, 0.514, 0.127, na, na, 0.010, na, na, 0.313, 0.275, na, na, 0.0727, na, na, na, na, na, na, 0.194, na, 6.4, 0.22, 0.346, na, na, na, na, na, na, na, na, na, 0.447, na, 0.089, 0.479, 0.489, 0.243, 0.747, 1, na, 1.9, 0.552, 2.1, na, na, na, na, na and na.

[4] = system: NF-kB signaling through NIK in human embryonic kidney 293 cells; assay: 293-NIK NF-kB-Luciferase reporter assay; format: cell-based; conditions: HEK293, 293 cells with tetracycline-inducible NIK, 1 ug/mL doxycycline, 24 hours, read-out: inhibitory value (IC50) for 293-NIK NF-kB-Luciferase activity
From the text: as §2

[5] = molecular target: T1, nuclear factor-kappa B (NF-kB)-inducing kinase (NIK) (Homo sapiens, UniProt Q99558); assay: NIK Enzyme Inhibition Assay (Transcreener ADP assay); format: biochemical; conditions: purified NIK 0.2-1 nM, 10 uM ATP, fluorescence polarization, Morrison's quadratic equation; read-out: inhibitory value (Ki) for NIK
T1 construct: made in house; host or cells: baculovirus-infected insect cells
T1 sequence (Q99558 whole entry): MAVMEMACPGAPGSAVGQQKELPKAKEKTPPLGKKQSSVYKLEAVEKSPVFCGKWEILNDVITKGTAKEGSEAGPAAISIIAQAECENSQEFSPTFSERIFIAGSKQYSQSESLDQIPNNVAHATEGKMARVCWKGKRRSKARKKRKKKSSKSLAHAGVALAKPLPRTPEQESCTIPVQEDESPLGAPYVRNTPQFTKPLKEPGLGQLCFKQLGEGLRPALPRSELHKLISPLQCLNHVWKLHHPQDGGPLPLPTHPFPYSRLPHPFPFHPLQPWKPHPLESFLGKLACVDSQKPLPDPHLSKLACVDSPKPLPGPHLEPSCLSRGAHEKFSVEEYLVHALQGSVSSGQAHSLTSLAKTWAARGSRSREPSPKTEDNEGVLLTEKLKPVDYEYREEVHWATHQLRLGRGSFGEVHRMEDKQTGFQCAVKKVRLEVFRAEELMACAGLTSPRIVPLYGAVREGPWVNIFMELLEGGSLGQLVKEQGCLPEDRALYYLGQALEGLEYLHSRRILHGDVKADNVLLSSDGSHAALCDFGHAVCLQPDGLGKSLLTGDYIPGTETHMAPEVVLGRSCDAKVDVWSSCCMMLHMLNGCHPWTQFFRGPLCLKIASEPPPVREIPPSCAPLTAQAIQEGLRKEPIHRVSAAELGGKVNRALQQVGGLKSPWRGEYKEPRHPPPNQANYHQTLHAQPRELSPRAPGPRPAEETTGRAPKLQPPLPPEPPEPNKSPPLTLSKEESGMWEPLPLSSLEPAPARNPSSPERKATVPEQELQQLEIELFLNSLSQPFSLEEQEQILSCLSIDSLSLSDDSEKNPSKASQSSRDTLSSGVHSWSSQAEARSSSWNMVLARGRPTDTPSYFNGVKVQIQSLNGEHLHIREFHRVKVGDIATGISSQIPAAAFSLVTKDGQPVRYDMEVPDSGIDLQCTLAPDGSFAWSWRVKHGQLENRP

Structure (SMILES)	IC50 [1] [nM]	IC50 [2] [nM]	IC50 [3] [nM]	IC50 [4] [nM]	Ki [5] [nM]
CC(O)(C#Cc1ccc2cnn(-c3ccnc(N)n3)c2c1)c1nccs1 (centres unmarked) [Example T1-1, 4-(1-(2-aminopyrimidin-4-yl)-1H-indazol-6-yl)-2-(thiazol-2-yl)but-3-yn-2-ol]	326	6400	326	–	–
N#Cc1ccc2cnn(-c3ccnc(N)n3)c2c1 [Example T1-3, 1-(2-aminopyrimidin-4-yl)-1H-indazole-6-carbonitrile]	–	≥ 20000	–	–	–
Nc1nccc(-n2ncc3ccc(C#CC4(O)CCCC4)cc32)n1 [Example T1-5, 1-((1-(2-aminopyrimidin-4-yl)-1H-indazol-6-yl)ethynyl) cyclopentanol]	–	1600	–	–	–
CC(C)(O)C#Cc1ccc2ncn(-c3ccnc(N)n3)c2c1 [Example T1-10, 4-(1-(2-aminopyrimidin-4-yl)-1H-benzo[d]imidazol-6-yl)-2-methylbut-3-yn-2-ol]	–	2600	–	1200	14.3
Cc1cc(C(C)(O)C#Cc2ccc3c(C)nn(-c4ccnc(N)n4)c3c2)on1 (centres unmarked) [Example T1-48, 4-(1-(2-aminopyrimidin-4-yl)-3-methyl-1H-indazol-6-yl)-2-(3-methylisoxazol-5-yl)but-3-yn-2-ol]	–	> 20000	–	1500	13
Cc1cc(C(C)(O)C#Cc2ccc3c(C(=O)N(C)C)nn(-c4ccnc(N)n4)c3c2)on1 (centres unmarked) [Example T1-52, 1-(2-aminopyrimidin-4-yl)-6-(3-hydroxy-3-(3-methyl-isoxazol-5-yl)but-1-ynyl)-N,N-dimethyl-1H-indazole-3-carboxamide]	89	≥ 20000	–	1300	10
Cc1nn(-c2ccnc(N)n2)c2cc(C#CC(C)(O)c3cncs3)ccc12 (centres unmarked) [Example T1-54, 4-(1-(2-aminopyrimidin-4-yl)-3-methyl-1H-indazol-6-yl)-2-(thiazol-5-yl)but-3-yn-2-ol]	489	17000	–	20000	105
Cc1cc(C(C)(O)C#Cc2ccc3c(C)nn(-c4ccnc(N)n4)c3c2)no1 (centres unmarked) [Example T1-58, 4-(1-(2-aminopyrimidin-4-yl)-3-methyl-1H-indazol-6-yl)-2-(5-methylisoxazol-3-yl)but-3-yn-2-ol]	–	2700	243	37	0.15
Cc1nn(-c2ccnc(N)n2)c2cc(C#CC(C)(O)c3cnccn3)ccc12 (centres unmarked) [Example T1-62, 4-(1-(2-aminopyrimidin-4-yl)-3-methyl-1H-indazol-6-yl)-2-(pyrazin-2-yl)but-3-yn-2-ol]	–	≥ 20000	1900	305	17
C[C@@](O)(C#Cc1ccc2nc(C3CC3)n(-c3ncnc(N)n3)c2c1)c1nccs1 [Example T1-63, (R)-4-(1-(4-amino-1,3,5-triazin-2-yl)-2-cyclopropyl-1H-benzo[d]imidazol-6-yl)-2-(thiazol-2-yl)but-3-yn-2-ol]	–	≥ 20000	552	64	0.23
Cc1cc(C(C)(O)C#Cc2ccc3nc(C)n(-c4ncnc(N)n4)c3c2)no1 (centres unmarked) [Example T1-64, 4-(1-(4-amino-1,3,5-triazin-2-yl)-2-methyl-1H-benzo[d]imidazol-6-yl)-2-(5-methyl-isoxazol-3-yl)but-3-yn-2-ol]	–	≥ 20000	2100	332	5
Cc1cc(C(C)(O)C#Cc2ccc3c(C(=O)N4CCOCC4)nn(-c4ccnc(N)n4)c3c2)no1 (centres unmarked) [Example T1-65, (1-(2-aminopyrimidin-4-yl)-6-(3-hydroxy-3-(5-methyl-isoxazol-3-yl)but-1-ynyl)-1H-indazol-3-yl)(morpholino) methanone]	–	≥ 20000	–	133	2.65
Cc1cc(C(C)(O)C#Cc2ccc3c(C(=O)N4CCCC4)nn(-c4ccnc(N)n4)c3c2)no1 (centres unmarked) [Example T1-66, (1-(2-aminopyrimidin-4-yl)-6-(3-hydroxy-3-(5-methyl-isoxazol-3-yl)but-1-ynyl)-1H-indazol-3-yl)(pyrrolidin-1-yl) methanone]	–	≥ 20000	–	168	1.27
Cc1nn(-c2ccnc(N)n2)c2cc(C#CC(C)(O)c3ncccn3)ccc12 (centres unmarked) [Example T1-67, 4-(1-(2-aminopyrimidin-4-yl)-3-methyl-1H-indazol-6-yl)-2-(pyrimidin-2-yl)but-3-yn-2-ol]	–	17600	–	217	4
COCc1nc2ccc(C#C[C@@](C)(O)c3nccs3)cc2n1-c1ncnc(N)n1 [Example T1-68, (R)-4-(1-(4-amino-1,3,5-triazin-2-yl)-2-(methoxymethyl)-1H-benzo[d]imidazol-6-yl)-2-(thiazol-2-yl)but-3-yn-2-ol]	–	≥ 20000	–	553	2.7
